This note sets out measurements from US6495525B1, “VLA-4 inhibitor: oMePUPA-V” (Biogen, Inc., priority 1998, dated 2002).

Molecules are shown by their SMILES.

A word on the inhibition: it is the share of the control response that was lost under treatment. The term IC50 denotes the concentration at which inhibition is half-maximal.

This assay deals with T1, α4β7 (Homo sapiens, UniProt P13612+P26010).
T1 construct: endogenous in cells; host or cells: JY cells
T1 sequence (P13612 34-1032): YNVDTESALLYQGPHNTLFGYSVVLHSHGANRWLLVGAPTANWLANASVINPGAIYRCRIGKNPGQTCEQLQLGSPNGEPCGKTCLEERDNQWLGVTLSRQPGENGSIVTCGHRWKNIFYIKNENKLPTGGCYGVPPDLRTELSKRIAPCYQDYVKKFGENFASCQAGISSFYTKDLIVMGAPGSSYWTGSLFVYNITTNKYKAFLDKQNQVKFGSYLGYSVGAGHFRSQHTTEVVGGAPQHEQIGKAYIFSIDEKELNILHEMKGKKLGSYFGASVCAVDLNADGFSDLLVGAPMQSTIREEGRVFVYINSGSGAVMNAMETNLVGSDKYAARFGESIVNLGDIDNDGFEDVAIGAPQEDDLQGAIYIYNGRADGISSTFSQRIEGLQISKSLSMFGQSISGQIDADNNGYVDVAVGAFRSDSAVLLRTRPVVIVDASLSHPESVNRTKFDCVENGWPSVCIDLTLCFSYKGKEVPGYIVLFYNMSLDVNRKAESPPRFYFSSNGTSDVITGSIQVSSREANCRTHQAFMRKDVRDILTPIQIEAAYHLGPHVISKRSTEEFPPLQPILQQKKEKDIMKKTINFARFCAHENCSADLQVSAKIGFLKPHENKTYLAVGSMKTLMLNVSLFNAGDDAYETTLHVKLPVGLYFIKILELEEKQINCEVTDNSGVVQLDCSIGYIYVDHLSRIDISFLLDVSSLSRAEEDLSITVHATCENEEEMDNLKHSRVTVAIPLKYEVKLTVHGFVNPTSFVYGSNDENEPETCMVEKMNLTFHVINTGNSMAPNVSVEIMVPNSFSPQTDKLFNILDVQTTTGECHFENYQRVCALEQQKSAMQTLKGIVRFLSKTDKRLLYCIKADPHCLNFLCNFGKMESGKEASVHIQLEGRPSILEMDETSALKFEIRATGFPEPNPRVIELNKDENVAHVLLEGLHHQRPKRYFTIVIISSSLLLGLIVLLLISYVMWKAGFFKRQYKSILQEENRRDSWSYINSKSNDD
T1 sequence (P26010 20-798): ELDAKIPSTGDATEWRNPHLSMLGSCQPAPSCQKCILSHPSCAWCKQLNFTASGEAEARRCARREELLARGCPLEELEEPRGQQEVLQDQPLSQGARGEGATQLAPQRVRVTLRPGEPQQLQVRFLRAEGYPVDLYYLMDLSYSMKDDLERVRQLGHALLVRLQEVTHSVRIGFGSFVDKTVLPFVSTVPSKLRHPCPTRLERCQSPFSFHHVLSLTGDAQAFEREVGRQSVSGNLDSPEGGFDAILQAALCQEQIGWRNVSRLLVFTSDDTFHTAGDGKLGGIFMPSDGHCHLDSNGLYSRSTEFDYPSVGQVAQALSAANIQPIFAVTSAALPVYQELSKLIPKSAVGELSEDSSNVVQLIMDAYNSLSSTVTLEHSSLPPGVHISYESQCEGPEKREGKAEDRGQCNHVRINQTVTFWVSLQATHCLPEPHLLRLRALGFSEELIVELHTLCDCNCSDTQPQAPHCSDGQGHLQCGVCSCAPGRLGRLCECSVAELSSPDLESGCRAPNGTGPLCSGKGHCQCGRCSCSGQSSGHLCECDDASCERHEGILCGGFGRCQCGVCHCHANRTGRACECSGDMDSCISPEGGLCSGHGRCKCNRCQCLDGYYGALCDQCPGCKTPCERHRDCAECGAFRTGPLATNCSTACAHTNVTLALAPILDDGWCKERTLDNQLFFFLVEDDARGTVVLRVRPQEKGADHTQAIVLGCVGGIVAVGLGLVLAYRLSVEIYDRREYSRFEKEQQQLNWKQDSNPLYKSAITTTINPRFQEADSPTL
Kind of assay: VCAM-Ig Direct Binding Assay on JY cells (α4β7). On the procedure: In order to assess the VLA-4 inhibitory specificity of the compounds of this invention, assays for other major groups of integrins, i.e., β2and β3, as well as other β1 integrins, such as VLA-5, VLA-6 and α4β7 are performed. These assays may be similar to the adhesion inhibition and direct binding assays described above, substituting the appropriate integrin-expressing cell and corresponding ligand. For example, polymorphonuclear cells (PMNs) express β2 integrins on their surface and bind to ICAM. β3 integrins are involved in platelet aggregation and inhibition may be measured in a standard platelet aggregation assay. VLA-5 binds specifically to Arg-Gly-Asp sequences, while VLA-6 binds to laminin. α4β7 is a recently discovered homologue of VLA-4, which also binds fibronectin and VCAM. Specificity with respect to α4β7 is determined in a binding assay that utilizes the above-described VCAM-IgG-enzyme marker conjugate and a cell line that expresses α4β7, but not VLA-4, such as RPMI-8866 or JY cells.
Binding to α4β7 was assessed on JY cells in the presence of Mn^+2. In the binding assay, VCAM-Ig and oMePUPA-V compete for binding to α4β7 on JY cells (See section 4.1.1 for assay protocol). In the cell adhesion assay, oMePUPA-V was tested for its ability to block JY (α4β7) cell binding to CS1/BSA conjugate

As to `Cc1ccccc1NC(=O)Nc1ccc(CC(=O)N2CCC[C@H]2C(=O)N[C@H](C)CC(=O)O)cc1` [oMePUPA-V], the “measurable activity against α4β7” value was greater than 100 µM. Besides, for the setting “@ 100 μM, Mn+2, read-out: inhibition, JY (α4β7) VCAM-Ig DBA”, the inhibition at 100 µM stood at 3%. Also, the “blocking of α4β7 binding to VCAM-Ig (in words)” value (JY cells, Mn+2) is “does not block”. Further, the IC50 (read-out: IC50 against α4β7-VCAM-Ig binding) is greater than 100 µM.
